Experiments:
[1] = biological target: 5-hydroxytryptamine receptor 4 (Rattus norvegicus) (UniProt Q62758); assay: Antagonist activity against 5-HT4 receptor mediated relaxation of rat carbachol contracted esophageal muscularis mucosae; format: functional
[2] = test system: Sus scrofa; assay: Antagonism of 5-HT-induced tachycardia in anesthetized, vagotomized Yucatan micropigs at 30-3000 ug/kg dose administered intraduodenally; format: functional; details: intraduodenal, read-out: ID50 (the source's name)
[3] = test system: Sus scrofa; assay: Antagonism of 5-HT-induced tachycardia in anesthetized, vagotomized Yucatan micropigs at 1-300 ug/kg dose administered intravenously; format: functional; details: iv, read-out: ID50 (the source's name)
[4] = Compound was tested for its half-life period at an intravenous dose of 30 ug/kg; format: ADME, organism-based, Sus scrofa; details: pig, in vivo, 0.03 mg/kg

5-hydroxytryptamine receptor 4 (Rattus norvegicus), sequence (Q62758 whole entry): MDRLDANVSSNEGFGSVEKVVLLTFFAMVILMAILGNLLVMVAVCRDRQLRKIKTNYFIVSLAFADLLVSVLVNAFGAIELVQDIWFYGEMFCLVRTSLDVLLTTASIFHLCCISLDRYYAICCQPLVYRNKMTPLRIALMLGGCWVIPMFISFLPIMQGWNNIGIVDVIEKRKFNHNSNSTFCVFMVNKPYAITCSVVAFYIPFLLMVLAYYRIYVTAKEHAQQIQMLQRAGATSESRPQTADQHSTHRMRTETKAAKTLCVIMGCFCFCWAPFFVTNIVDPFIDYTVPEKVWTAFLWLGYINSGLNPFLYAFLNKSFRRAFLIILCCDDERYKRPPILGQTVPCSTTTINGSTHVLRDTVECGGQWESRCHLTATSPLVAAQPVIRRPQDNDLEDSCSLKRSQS

pKb [1] | half-life [4] | Compound | ED50 [2] | ED50 [3]
9.1 | 5.25 h | COc1cc(COc2cc(N)c(Cl)cc2C(=O)CCC2CCN(CCNS(C)(=O)=O)CC2)cc(OC)c1 | 0.245 mg/kg | 0.00468 mg/kg
10.6 | – | COc1ccc(CCCN2CCC(CCC(=O)c3cc(Cl)c(N)c4c3OCCO4)CC2)cc1 | – | –
